# How the values were obtained:
# [1] = system: Staphylococcus aureus strain which is resistant to rifampicin (Staph. aureus Tour); test: in vitro minimal inhibitory concentration against rifampicin-resistant Staphylococcus aureus strain; type: cell-based; settings: Staphylococcus aureus, read-out: Minimal inhibitory concentration
# Method: In particular, compounds illustrative of the invention at concentrations of about 10 to 20 μg/ml or less inhibit the growth of a Staph. aureus Tour strain resistant to rifampicin.
# One of the most important characteristics of the new hydrazones is their activity against rifampicin-resistant Staphylococcus aureus strains. Rifampicin, that is 3-(4-methyl-1-piperazinyl)iminomethylrifamycin SV, disclosed in U.S. Pat. No. 3,342,810, is the most known and widely used rifamycin derivative in therapeutic practice.
# The data of the new compounds are compared with those of representative hydrazones disclosed in U.S. Pat. No. 3,342,810.
# [2] = target: T1, mouse embryo RNA-polymerase II (ME-RNA-P2) (Mus musculus, UniProt P08775+Q8CFI7); test: effect on mouse embryo RNA-polymerase II; type: biochemical; settings: Single Stranded Calf-Thymus DNA
# T1 construct: mouse embryo RNA-polymerase II (ME-RNA-P2); endogenous in cells; host or cells: mouse embryo cells
# Description: (§1) Calf-Thymus DNA. Me-RNA-P1 and ME-RNA-P2 : Single Stranded
# [3] = target: T2, sarcoma virus DNA-polymerases (SSV-DNA-P) (Woolly monkey sarcoma virus, UniProt P03359); test: effect on activity of SSV-polymerase; type: biochemical; settings: template Oligo dT.Poly rA
# T2 construct: sarcoma virus DNA-polymerases (SSV-DNA-P)
# Description: Templates used in the Enzymatic Assays were the following: SSV-DNA-P: […]
# [4] = system: mouse embryo DNA-polymerase I (ME-DNA-P1); test: effect on mouse embryo DNA-polymerase I; type: biochemical; settings: activated Calf-Thymus DNA
# Description: (§2) Oligo dT.Poly rA. ME-DNA-P1 and ME-DNA-p2 : activated
# [5] = target: T3, mouse embryo RNA-polymerase I (ME-RNA-P1) (Mus musculus, UniProt O35134+P70700); test: effect on mouse embryo RNA-polymerase I; type: biochemical; settings: Single Stranded Calf-Thymus DNA
# T3 construct: mouse embryo RNA-polymerase I (ME-RNA-P1); endogenous in cells; host or cells: mouse embryo cells
# Description: as §1
# [6] = system: mouse embryo DNA-polymerase II (ME-DNA-P2); test: effect on mouse embryo DNA-polymerase II; type: biochemical; settings: activated Calf-Thymus DNA
# Description: as §2
# T2 sequence (P03359 642-1310): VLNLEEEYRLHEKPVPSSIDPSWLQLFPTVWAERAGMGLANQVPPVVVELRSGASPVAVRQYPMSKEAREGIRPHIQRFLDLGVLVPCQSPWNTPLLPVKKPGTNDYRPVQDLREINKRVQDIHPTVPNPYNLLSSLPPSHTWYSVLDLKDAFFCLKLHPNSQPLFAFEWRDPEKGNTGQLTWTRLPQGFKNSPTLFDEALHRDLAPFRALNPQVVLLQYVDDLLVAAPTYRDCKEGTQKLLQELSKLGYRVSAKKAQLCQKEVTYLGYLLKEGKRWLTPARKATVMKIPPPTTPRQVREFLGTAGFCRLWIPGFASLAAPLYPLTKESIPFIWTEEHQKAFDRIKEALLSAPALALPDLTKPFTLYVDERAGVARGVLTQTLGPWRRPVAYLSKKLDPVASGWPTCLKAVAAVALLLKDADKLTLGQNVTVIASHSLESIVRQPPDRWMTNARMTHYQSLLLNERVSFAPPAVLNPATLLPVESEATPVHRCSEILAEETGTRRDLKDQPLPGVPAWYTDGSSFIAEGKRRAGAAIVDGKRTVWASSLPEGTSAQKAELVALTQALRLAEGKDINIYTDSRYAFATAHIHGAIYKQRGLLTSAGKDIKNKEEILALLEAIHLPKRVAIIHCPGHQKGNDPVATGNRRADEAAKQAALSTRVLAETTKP
smiles,measurement,setting,value
COC1C=COC2(C)Oc3c(C)c(O)c4c(O)c(c(C=NNc5ccccc5C)c(O)c4c3C2=O)NC(=O)C(C)=CC=CC(C)C(O)C(C)C(O)C(C)C(OC(C)=O)C1C (centres unmarked) [Example 38],MIC,[1],20 µg/mL
COC1C=COC2(C)Oc3c(C)c(O)c4c(O)c(c(C=NNc5ccc(F)cc5)c(O)c4c3C2=O)NC(=O)C(C)=CC=CC(C)C(O)C(C)C(O)C(C)C(OC(C)=O)C1C (centres unmarked) [Example 37],MIC,[1],50 µg/mL
COC1C=COC2(C)Oc3c(C)c(O)c4c(O)c(c(C=NNc5ccc(C(=O)O)cc5)c(O)c4c3C2=O)NC(=O)C(C)=CC=CC(C)C(O)C(C)C(O)C(C)C(OC(C)=O)C1C (centres unmarked) [p-Carboxyphenylhydrazone of 3-formylrifamycin SV],MIC,[1],> 100 µg/mL
"COC1C=COC2(C)Oc3c(C)c(O)c4c(O)c(c(C=NNc5cccc(C(F)(F)F)c5)c(O)c4c3C2=O)NC(=O)C(C)=CC=CC(C)C(O)C(C)C(O)C(C)C(OC(C)=O)C1C (centres unmarked) [Example 43, 3-Formylrifamycin SV: hydrazone of ((3-trifluoromethyl)-phenyl) hydrazine]",MIC,[1],10 µg/mL
COC1C=COC2(C)Oc3c(C)c(O)c4c(O)c(c(C=NNc5c(C)cc(C(C)(C)C)cc5C)c(O)c4c3C2=O)NC(=O)C(C)=CC=CC(C)C(O)C(C)C(O)C(C)C(OC(C)=O)C1C (centres unmarked) [Example 41],MIC,[1],20 µg/mL
CO[C@H]1/C=C/O[C@@]2(C)Oc3c(C)c(O)c4c(O)c(cc(O)c4c3C2=O)NC(=O)/C(C)=C\C=C\[C@H](C)[C@H](O)[C@@H](C)[C@@H](O)[C@@H](C)[C@H](OC(C)=O)[C@@H]1C [rifamycin SV],remaining activity at 5 µg,"[2]; 5μg, read-out: % Control Activity of ME-RNA-P2 at 5μg",89%
same,remaining activity at 10 µg,"[2]; 10μg, read-out: % Control Activity of ME-RNA-P2 at 10μg",87%
same,remaining activity at 100 µg,"[2]; 100μg, read-out: % Control Activity of ME-RNA-P2 at 100μg",82%
same,% Control Activity of SSV-DNA-P at 5μg,[3]; 5μg,105%
same,% Control Activity of SSV-DNA-P at 10μg,[3]; 10μg,75%
same,% Control Activity of SSV-DNA-P at 100μg,[3]; 100μg,61%
same,% Control Activity of ME-DNA-P1 at 5μg,[4]; 5μg,91%
same,% Control Activity of ME-DNA-P1 at 10μg,[4]; 10μg,95%
same,% Control Activity of ME-DNA-P1 at 100μg,[4]; 100μg,105%
same,remaining activity at 10 µg,"[5]; 10μg, read-out: % Control Activity of ME-RNA-P1 at 10μg",84%
same,remaining activity at 100 µg,"[5]; 100μg, read-out: % Control Activity of ME-RNA-P1 at 100μg",106%
same,% Control Activity of ME-DNA-P2 at 5μg,[6]; 5μg,94%
same,% Control Activity of ME-DNA-P2 at 10μg,[6]; 10μg,100%
same,% Control Activity of ME-DNA-P2 at 100μg,[6]; 100μg,72%
COC1C=COC2(C)Oc3c(C)c(O)c4c(O)c(c(C=NNC5CCCCC5)c(O)c4c3C2=O)NC(=O)C(C)=CC=CC(C)C(O)C(C)C(O)C(C)C(OC(C)=O)C1C (centres unmarked) [Example 2],MIC,[1],20 µg/mL
COC1C=COC2(C)Oc3c(C)c(O)c4c(O)c(c(C=NN(C)Cc5ccc(-c6ccccc6)cc5)c(O)c4c3C2=O)NC(=O)C(C)=CC=CC(C)C(O)C(C)C(O)C(C)C(OC(C)=O)C1C (centres unmarked) [Example 42],MIC,[1],5 µg/mL
CNN=Cc1c2c(O)c3c(O)c(C)c4c(c3c1O)C(=O)C(C)(OC=CC(OC)C(C)C(OC(C)=O)C(C)C(O)C(C)C(O)C(C)C=CC=C(C)C(=O)N2)O4 (centres unmarked) [N-Methylhydrazone of 3-formylrifamycin SV],MIC,[1],> 100 µg/mL
CCCCCN(CCCCC)N=Cc1c2c(O)c3c(O)c(C)c4c(c3c1O)C(=O)C(C)(OC=CC(OC)C(C)C(OC(C)=O)C(C)C(O)C(C)C(O)C(C)C=CC=C(C)C(=O)N2)O4 (centres unmarked) [Example 46],MIC,[1],1 µg/mL
CCCCCN(C)N=Cc1c2c(O)c3c(O)c(C)c4c(c3c1O)C(=O)C(C)(OC=CC(OC)C(C)C(OC(C)=O)C(C)C(O)C(C)C(O)C(C)C=CC=C(C)C(=O)N2)O4 (centres unmarked) [Example 3],MIC,[1],10 µg/mL
COC1C=COC2(C)Oc3c(C)c(O)c4c(O)c(c(C=NNC56CC7CC(CC(C7)C5)C6)c(O)c4c3C2=O)NC(=O)C(C)=CC=CC(C)C(O)C(C)C(O)C(C)C(OC(C)=O)C1C (centres unmarked) [Example 47],MIC,[1],5 µg/mL
COC1C=COC2(C)Oc3c(C)c(O)c4c(O)c(c(C=NNC5CCCC5)c(O)c4c3C2=O)NC(=O)C(C)=CC=CC(C)C(O)C(C)C(O)C(C)C(OC(C)=O)C1C (centres unmarked) [Example 1],MIC,[1],20 µg/mL

# Source: patent US4005076A, “Hydrazones of 3-formylrifamycin SV” (Gruppo Lepetit S.p.A., priority 1971, dated 1977)
